Measured values as given in patent publication US20140357655A1, “SPIROINDOLINE DERIVATIVES AS GONADOTROPIN- RELEASING HORMONE RECEPTOR ANTAGONISTS” (Bayer Intellectual Property GmbH, priority 2012, published 2014).
Like-named read-outs stand apart in the source and are kept apart here. Square brackets hold non-standard residues; d marks the D form. Peptide text beside a SMILES is read from it. dPhe(4-Cl) = N[C@H](Cc1ccc(Cl)cc1)C(=O)O; d2Nal = N[C@H](Cc1ccc2ccccc2c1)C(=O)O; dCit = NC(=O)NCCC[C@@H](N)C(=O)O; d3Pal = N[C@H](Cc1cccnc1)C(=O)O

Columns and labels:
human GnRH receptor = molecular target: T1, human GnRH receptor (Homo sapiens, UniProt P30968); experiment: IP-One HTRF assay with buserelin (at EC80) stimulation; format: cell-based; settings: CHO cells stably expressing human GnRH receptor, read-out: Potency in IP-One HTRF assay, given as IC50
T1 sequence (P30968 1-328): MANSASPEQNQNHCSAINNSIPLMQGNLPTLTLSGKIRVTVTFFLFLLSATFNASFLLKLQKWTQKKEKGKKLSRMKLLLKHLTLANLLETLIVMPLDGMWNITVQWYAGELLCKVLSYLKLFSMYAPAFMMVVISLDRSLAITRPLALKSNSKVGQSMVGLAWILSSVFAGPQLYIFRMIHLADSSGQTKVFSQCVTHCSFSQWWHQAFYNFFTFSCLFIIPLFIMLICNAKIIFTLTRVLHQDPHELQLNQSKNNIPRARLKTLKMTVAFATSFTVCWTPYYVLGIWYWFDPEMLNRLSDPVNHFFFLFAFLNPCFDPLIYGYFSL
Outline: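 Ten-point duplicate titrations (20 μM to 1 nM) were fitted by 4-parameter model to normalized 665/620 nm HTRF ratios, 0% = no compound, 100% = no agonist. Assay measured IP1 accumulation in human GnRH-R CHO cells stimulated 1 h at 37° C with EC80 buserelin, then lysed 1 h at 22° C.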

human GnRHR = molecular target: T2, human GnRHR (Homo sapiens, UniProt P30968); experiment: Tag-Lite receptor binding assay; settings: Hek293 cells transiently transfected with human GnRHR; green-labelled GnRHR binding peptide; read-out: Potency in receptor binding assay using TAG-LITE technology, given as IC50
T2 construct: host or cells: HEK293 (transient transfection), purchased as frozen labelled cells
T2 sequence (P30968 1-328): T1 sequence (P30968 1-328)
Source text: This binding assay is based on the fluorescence resonance energy transfer between fluorescence donor labelled human GnRHR and a green-labelled GnRHR binding peptide. Compounds interfering with the ligand binding side of the human GnRHR will replace the labelled peptide resulting in a signal decrease. The assay principle was established by Cisbio Bioassays (Bagnols-sur-Cèze Cedex, France) and further details are available on their homepage.
The assay procedure was further optimized for use in-house with reduced assay volumes. Frozen Hek293 cells, transiently transfected with human GnRHR and Terbium-labelling of the receptor, were supplied by Cisbio Bioassays as well as Tag-Lite buffer and green-labelled GnRHR binding peptide. Cells were thawed and transferred to cold Tag-Lite buffer. A volume of 8 μl of this cell suspension were added to 100 nl of a 160-fold concentrated solution of the test compound in DMSO pre-dispensed in a well of a white low-volume 384-well microtiter plate (Greiner Bio-One, Frickenhausen, Germany). The mixture was incubated for 5 min at room temperature. In the next step either 4 μl Tag-Lite buffer or as control 4 μl of an exceeding amount unlabelled binding peptide in Tag-Lite buffer were transferred to the mixture. The green-labelled GnRHR binding peptide was added in a final step at EC50 in a volume of 4 μl Tag-Lite buffer. After an incubation of 1 h at room temperature plates were measured in a microplate reader, e.g. a PHERAstar (BMG Labtechnologies, Offenburg, Germany) by using a specific optic module.
A ratio from the fluorescence emissions at 520 nm (green fluorescence) and at 490 nm (background signal of Terbium-labelled GnRHR) was calculated and the data were normalized (reaction without test compound=0% inhibition of binding of green-labelled peptide; reaction without test compound with exceeding amount unlabelled binding peptide=100% inhibition of binding of green-labelled peptide). On the same microtiter plate, compounds were tested at 10 different concentrations in the range of 12.5 μM to 0.64 nM (12.5 μM, 4.2 μM, 1.4 μM, 0.46 μM, 0.15 μM, 51 nM, 17 nM, 5.7 nM, 1.9 nM and 0.64 nM; dilution series prepared before the assay at the level of the 160-fold conc. stock solutions by serial 1:3 dilutions in 100% DMSO) in duplicate values for each concentration. By using an in-house software, the IC50 values were calculated by a 4 parameter fit.

serum LH = experiment: LH suppression in the ovariectomized rat; format: in vivo; settings: ovariectomized rats; for LH suppression: at 6 hours
Source text: The in vivo potency of GnRH antagonists can be quantified by a LH suppression test in ovariectomized rats. GnRH triggers the LH release from the pituitary mediated by GnRH receptors. Ovarectomy of adult female rats results in elevated levels of circulating LH due to a lack of negative feedback by gonadal steroids. GnRH antagonists suppress the release of LH and accordingly suppression of LH levels can be used to quantify the in vivo potency of GnRH antagonists.
(§1) Female adult rats were ovariectomized surgically and they were allowed to recover for at least one week. The animals received 1 mg/kg, 10 mg/kg or 30 mg/kg of Example 14.1 by single per oral administration. For comparison reasons a vehicle control and a positive control, 0.1 mg/kg cetrorelix i.p., were given once. At 0 min, 15 min, 30 min, 1 hour, 2 hours, 6 hours and 24 hours after compound administration blood was taken from the retro orbital plexus (n=6 per blood withdrawal) for the measurement of serum LH and serum compound levels.

[1] = Serum compound levels in ovariectomized rats; format: in vivo; settings: female, rat, read-out: serum compound level
Description: as §1

O=C(NCc1ccccc1Cl)c1ccc2c(c1)C1(CC[S+]([O-])CC1)C(C1CC1)N2S(=O)(=O)c1ccc(F)cc1 (single isomer, unassigned) [Example 13.1, N-(2-Chlorobenzyl)-2-cyclopropyl-1-[(4-fluorophenyl)sulfonyl]-1,2,2′,3′,5′,6′-hexahydrospiro[indole-3,4′-thiopyran]-5-carboxamide 1′-oxide]
IC50 (human GnRH receptor): 12 nM
IC50 (human GnRHR): 8.5 nM

O=C(NCc1ncccc1Cl)c1ccc2c(c1)C1(CCS(=O)(=O)CC1)C(C1CC1)N2S(=O)(=O)c1ccc(F)cc1 (single isomer, unassigned) [Example 14.1, N-[(3-Chloropyridin-2-yl)methyl]-2-cyclopropyl-1-[(4-fluorophenyl)sulfonyl]-1,2,2′,3′,5′,6′-hexahydrospiro[indole-3,4′-thiopyran]-5-carboxamide 1′,1′-dioxide]
LH suppression (serum LH; 1 mg/kg single per oral): 11%
LH suppression (serum LH; 10 mg/kg single per oral): 89%
LH suppression (serum LH; 30 mg/kg single per oral): 88%
in vivo activity (conclusion in words) (serum LH; per oral): orally active GnRH antagonist in vivo
concentration at 6 h ([1]; 1 mg/kg per oral): 40 nM
concentration at 6 h ([1]; 10 mg/kg per oral): 770 ± 200 nM
concentration at 6 h ([1]; 30 mg/kg per oral): 1840 ± 530 nM
IC50 (human GnRH receptor): 104 nM
IC50 (human GnRHR): 20 nM

O=C(NCc1ccccc1Cl)c1ccc2c(c1)C1(CCS(=O)(=O)CC1)C(C1CC1)N2S(=O)(=O)c1ccc(F)cc1 (single isomer, unassigned) [Example 18.1, N-(2-chlorobenzyl)-2-cyclopropyl-1-[(4-fluorophenyl)sulfonyl]-1,2,2′,3′,5′,6′-hexahydrospiro[indole-3,4′-thiopyran]-5-carboxamide 1′,1′-dioxide]
IC50 (human GnRH receptor): 26 nM
IC50 (human GnRHR): 11 nM

O=C(NCc1ccccc1C(F)F)c1ccc2c(c1)C1(CCS(=O)(=O)CC1)C(C1CC1)N2S(=O)(=O)c1ccc(F)cc1 (single isomer, unassigned) [Example 68.1, 2-cyclopropyl-N-[2-(difluoromethyl)benzyl]-1-[(4-fluorophenyl)sulfonyl]-1,2,2′,3′,5′,6′-hexahydrospiro[indole-3,4′-thiopyran]-5-carboxamide 1′,1′-dioxide]
IC50 (human GnRH receptor): 4.2 nM
IC50 (human GnRHR): 9.5 nM

O=C(Nc1cccc(Cl)c1)c1ccc2c(c1)C1(CCS(=O)(=O)CC1)C(C1CC1)N2S(=O)(=O)c1ccc(F)cc1 (centres unmarked) [Example 24, N-(3-chlorophenyl)-2-cyclopropyl-1-[(4-fluorophenyl)sulfonyl]-1,2,2′,3′,5′,6′-hexahydrospiro[indole-3,4′-thiopyran]-5-carboxamide 1′,1′-dioxide]
IC50 (human GnRH receptor): 264 nM
IC50 (human GnRHR): 187 nM

O=C(Nc1ccccc1Cl)c1ccc2c(c1)C1(CCS(=O)(=O)CC1)C(C1CC1)N2S(=O)(=O)c1ccc(F)cc1 (centres unmarked) [Example 67, N-(2-chlorophenyl)-2-cyclopropyl-1-[(4-fluorophenyl)sulfonyl]-1,2,2′,3′,5′,6′-hexahydrospiro[indole-3,4′-thiopyran]-5-carboxamide 1′,1′-dioxide]
IC50 (human GnRH receptor): 113 nM
IC50 (human GnRHR): 154 nM

N#Cc1ccc(S(=O)(=O)N2c3ccc(C(=O)Nc4ccccc4F)cc3C3(CCS(=O)(=O)CC3)C2C2CC2)cc1 (centres unmarked) [Example 75, 1-[(4-cyanophenyl)sulfonyl]-2-cyclopropyl-N-(2-fluorophenyl)-1,2,2′,3′,5′,6′-hexahydrospiro[indole-3,4′-thiopyran]-5-carboxamide 1′,1′-dioxide]
IC50 (human GnRH receptor): 53 nM
IC50 (human GnRHR): 30 nM

O=C(Nc1ccc2c(c1)C1(CCS(=O)(=O)CC1)C(C1CC1)N2S(=O)(=O)c1ccc(F)cc1)C1CCCC1 (centres unmarked) [Example 99, N-{2-cyclopropyl-1-[(4-fluorophenyl)sulfonyl]-1′,1′-dioxido-1,2,2′,3′,5′,6′-hexahydrospiro[indole-3,4′-thiopyran]-5-yl}cyclopentanecarboxamide]
IC50 (human GnRH receptor): 300 nM

CC(=O)N[C@H](Cc1ccc2ccccc2c1)C(=O)N[C@H](Cc1ccc(Cl)cc1)C(=O)N[C@H](Cc1cccnc1)C(=O)N[C@@H](CO)C(=O)N[C@@H](Cc1ccc(O)cc1)C(=O)N[C@H](CCCNC(N)=O)C(=O)N[C@@H](CC(C)C)C(=O)N[C@@H](CCCNC(=N)N)C(=O)N1CCC[C@H]1C(=O)N[C@H](C)C(N)=O [cetrorelix, reference compound] (Ac-[d2Nal][dPhe(4-Cl)][d3Pal]SY[dCit]LRP[dA]-NH2)
LH suppression (serum LH; 0.1 mg/kg i.p.): 91%
